Assay results as given in PubChem BioAssay (NCI).
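Compound exposure: 48 hours, 5 concentrations, 96-well plates. TGI marks complete inhibition of growth.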

Legend:
Test in all cases: NCI tumour cell line growth inhibition, 48 h
ACHN renal = test system: ACHN renal
CAKI-1 renal = test system: CAKI-1 renal
CCRF-CEM leukemia = test system: CCRF-CEM leukemia
HL-60(TB) leukemia = test system: HL-60(TB) leukemia
HOP-18 NSCLC = test system: HOP-18 NSCLC
HT29 colon = test system: HT29 colon
K-562 leukemia = test system: K-562 leukemia
LXFL 529 NSCLC = test system: LXFL 529 NSCLC
M14 melanoma = test system: M14 melanoma
NCI-H23 lung = test system: NCI-H23 lung
NCI-H460 lung = test system: NCI-H460 lung
NCI-H522 lung = test system: NCI-H522 lung
OVCAR-3 ovarian = test system: OVCAR-3 ovarian
SK-MEL-2 melanoma = test system: SK-MEL-2 melanoma
SR leukemia = test system: SR leukemia
TK-10 renal = test system: TK-10 renal
XF 498 CNS = test system: XF 498 CNS
MCF7 breast = test system: MCF7 breast
P388 leukemia = test system: P388 leukemia
P388/ADR leukemia = test system: P388/ADR leukemia

| SMILES | TGI (ACHN renal) | TGI (CAKI-1 renal) | TGI (CCRF-CEM leukemia) | TGI (HL-60(TB) leukemia) | TGI (HOP-18 NSCLC) | TGI (HT29 colon) | TGI (K-562 leukemia) | TGI (LXFL 529 NSCLC) | TGI (M14 melanoma) | TGI (NCI-H23 lung) | TGI (NCI-H460 lung) | TGI (NCI-H522 lung) | TGI (OVCAR-3 ovarian) | TGI (SK-MEL-2 melanoma) | TGI (SR leukemia) | TGI (TK-10 renal) | TGI (XF 498 CNS) | TGI (MCF7 breast) | TGI (P388 leukemia) | TGI (P388/ADR leukemia) |
| --- | --- | --- | --- | --- | --- | --- | --- | --- | --- | --- | --- | --- | --- | --- | --- | --- | --- | --- | --- | --- |
| COC(=O)C(=O)C(C(=O)Nc1cccc(C)c1C)C1Sc2ccccc2NC1=O (stereo unspecified) | > 25 µM | > 25 µM | > 25 µM | > 25 µM | > 25 µM | > 25 µM | > 25 µM | > 25 µM | > 25 µM | > 25 µM | > 25 µM | > 25 µM | > 25 µM | 18.3 µM | > 25 µM | > 25 µM | > 25 µM |  |  |  |
| Cc1c2cc[nH]c(C(F)(F)F)c2cc2c1nc1ccccc12 |  | > 125 µM | > 125 µM | > 125 µM |  | > 125 µM | > 125 µM |  |  | > 125 µM | > 125 µM | > 125 µM | > 125 µM | > 125 µM |  |  | > 19.8 µM | > 125 µM | > 125 µM | > 70.3 µM |
| Cn1cnc([N+](=O)[O-])c1Sc1nc2cc(Cl)c(F)cc2[nH]1 | 34.1 µM | 14.4 µM |  |  | 29 µM | 47.3 µM |  | 19.2 µM | 27.6 µM | 31.3 µM | 27.7 µM |  |  |  | 12.4 µM | 33 µM |  |  |  |  |
